Results reported in patent US12441703B2, “Carboxamides as modulators of sodium channels” (VERTEX PHARMACEUTICALS INCORPORATED, priority 2019, dated 2025).

Each compound was assayed against human NaV 1.8 (Homo sapiens, UniProt Q9Y5Y9) (assay: E-VIPR assay for detecting and measuring NaV inhibition properties). Details: E-VIPR assay conducted in the presence of human serum; HEK cells expressing truncated human NaV 1.8; read-out: IC50.
Format: cell-based
Outline: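 Membrane-potential (coumarin/oxonol) readout after 10 s of 10 Hz biphasic electrical stimulation on E-VIPR. Compounds: 11-point 3-fold dilutions, […], 0.625% DMSO, 30 min at room temperature, human serum optional. Cells: HEK expressing truncated human NaV1.8 co-transduced with KIR2.1.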

Sequence of human NaV 1.8 (Q9Y5Y9 whole entry, looked up, the tested form may be a part): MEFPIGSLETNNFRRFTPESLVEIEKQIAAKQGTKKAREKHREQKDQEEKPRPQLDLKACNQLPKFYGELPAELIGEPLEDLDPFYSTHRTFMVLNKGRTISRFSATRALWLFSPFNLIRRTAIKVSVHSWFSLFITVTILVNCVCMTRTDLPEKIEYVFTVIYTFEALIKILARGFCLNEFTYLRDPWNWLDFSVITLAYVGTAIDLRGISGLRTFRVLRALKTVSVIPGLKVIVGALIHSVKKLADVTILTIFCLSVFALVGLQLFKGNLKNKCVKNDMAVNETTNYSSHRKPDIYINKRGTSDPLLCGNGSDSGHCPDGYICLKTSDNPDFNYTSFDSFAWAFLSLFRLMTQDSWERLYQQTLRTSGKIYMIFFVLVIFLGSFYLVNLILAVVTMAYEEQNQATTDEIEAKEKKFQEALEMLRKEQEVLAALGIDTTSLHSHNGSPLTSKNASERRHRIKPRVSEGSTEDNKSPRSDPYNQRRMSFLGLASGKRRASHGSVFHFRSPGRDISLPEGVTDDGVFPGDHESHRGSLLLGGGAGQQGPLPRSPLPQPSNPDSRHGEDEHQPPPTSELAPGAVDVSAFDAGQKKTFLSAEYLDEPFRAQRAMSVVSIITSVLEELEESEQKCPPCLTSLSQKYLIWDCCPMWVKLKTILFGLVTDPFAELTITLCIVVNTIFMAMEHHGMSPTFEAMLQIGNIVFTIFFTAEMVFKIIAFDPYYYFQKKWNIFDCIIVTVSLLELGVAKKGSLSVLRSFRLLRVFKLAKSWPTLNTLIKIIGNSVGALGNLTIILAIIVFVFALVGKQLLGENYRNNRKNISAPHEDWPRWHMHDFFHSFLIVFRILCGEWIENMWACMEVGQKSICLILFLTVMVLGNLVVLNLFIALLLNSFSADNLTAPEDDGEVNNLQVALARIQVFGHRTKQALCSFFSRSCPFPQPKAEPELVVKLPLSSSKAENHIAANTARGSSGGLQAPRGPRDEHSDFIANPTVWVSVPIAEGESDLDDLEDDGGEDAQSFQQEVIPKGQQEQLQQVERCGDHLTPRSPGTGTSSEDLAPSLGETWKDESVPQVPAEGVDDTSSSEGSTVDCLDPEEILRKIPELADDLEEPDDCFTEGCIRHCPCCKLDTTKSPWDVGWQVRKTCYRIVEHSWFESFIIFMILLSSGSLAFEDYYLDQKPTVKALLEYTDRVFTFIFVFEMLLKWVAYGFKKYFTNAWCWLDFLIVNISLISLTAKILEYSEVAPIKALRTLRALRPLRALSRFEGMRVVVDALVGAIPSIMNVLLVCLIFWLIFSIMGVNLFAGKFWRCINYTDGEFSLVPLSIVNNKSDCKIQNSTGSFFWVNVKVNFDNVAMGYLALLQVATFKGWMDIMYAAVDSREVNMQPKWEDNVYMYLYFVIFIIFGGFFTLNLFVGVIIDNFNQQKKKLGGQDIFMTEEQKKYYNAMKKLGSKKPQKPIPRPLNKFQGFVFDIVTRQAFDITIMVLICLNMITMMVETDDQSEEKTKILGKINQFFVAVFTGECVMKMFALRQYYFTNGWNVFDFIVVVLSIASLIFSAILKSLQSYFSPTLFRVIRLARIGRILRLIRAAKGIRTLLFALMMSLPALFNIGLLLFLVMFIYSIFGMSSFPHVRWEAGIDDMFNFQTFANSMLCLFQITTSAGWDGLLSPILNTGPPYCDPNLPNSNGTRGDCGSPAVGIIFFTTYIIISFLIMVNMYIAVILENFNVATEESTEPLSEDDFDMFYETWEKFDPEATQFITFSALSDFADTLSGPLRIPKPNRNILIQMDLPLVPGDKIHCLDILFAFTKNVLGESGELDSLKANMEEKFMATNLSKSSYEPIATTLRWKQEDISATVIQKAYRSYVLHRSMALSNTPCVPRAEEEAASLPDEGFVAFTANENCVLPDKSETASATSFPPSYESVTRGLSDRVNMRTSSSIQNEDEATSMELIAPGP

| IC50 [nM] | Structure (SMILES) |
| --- | --- |
| 110 | COc1c(C(F)(F)F)ccc(Oc2ccc(OC(C)C)c(F)c2)c1C(=O)Nc1ccnc(C(N)=O)c1 [Compound 67, 4-[[6-(3-fluoro-4-isopropoxy-phenoxy)-2-methoxy-3-(trifluoromethyl)benzoyl]amino]pyridine-2-carboxamide] |
| 290 | COc1c(C(F)(F)F)ccc(Oc2ccc(F)c3c2OCC3)c1C(=O)Nc1ccnc(C(N)=O)c1 [Compound 68, 4-[[6-[(4-fluoro-2,3-dihydrobenzofuran-7-yl)oxy]-2-methoxy-3-(trifluoromethyl)benzoyl]amino]pyridine-2-carboxamide] |
| > 3000 | COc1cc(Oc2ccc(C(F)(F)F)c(OC)c2C(=O)Nc2ccnc(C(N)=O)c2)ccc1F [Compound 69, 4-[[6-(4-fluoro-3-methoxy-phenoxy)-2-methoxy-3-(trifluoromethyl)benzoyl]amino]pyridine-2-carboxamide] |
| > 3000 | COc1c(C(F)(F)F)ccc(Oc2ccc(C(F)(F)F)nc2)c1C(=O)Nc1ccnc(C(N)=O)c1 [Compound 70, 4-[[2-methoxy-3-(trifluoromethyl)-6-[[6-(trifluoromethyl)-3-pyridyl]oxy]benzoyl]amino]pyridine-2-carboxamide] |
| 560 | CC(C)Oc1ccc(Oc2cccc(C(F)(F)F)c2C(=O)Nc2ccnc(C(N)=O)c2)c(F)c1F [Compound 72, 4-[[2-(2,3-difluoro-4-isopropoxy-phenoxy)-6-(trifluoromethyl)benzoyl]amino]pyridine-2-carboxamide] |
| 1500 | COc1nc(Cl)ccc1Oc1cccc(C(F)(F)F)c1C(=O)Nc1ccnc(C(N)=O)c1 [Compound 73, 4-[[2-[(6-chloro-2-methoxy-3-pyridyl)oxy]-6-(trifluoromethyl)benzoyl]amino]pyridine-2-carboxamide] |
| 1200 | CC(C)Oc1ccc(Oc2cccc(C(F)(F)F)c2C(=O)Nc2ccnc(C(N)=O)c2)cc1F [Compound 74, 4-[[2-(3-fluoro-4-isopropoxy-phenoxy)-6-(trifluoromethyl)benzoyl]amino]pyridine-2-carboxamide] |
| 1750 | COc1cc(F)ccc1Oc1cccc(C(F)(F)F)c1C(=O)Nc1ccnc(C(N)=O)c1 [Compound 75, 4-[[2-(4-fluoro-2-methoxy-phenoxy)-6-(trifluoromethyl)benzoyl]amino]pyridine-2-carboxamide] |
| > 3000 | NC(=O)c1cc(NC(=O)c2c(Oc3ccc(F)cc3F)cccc2C(F)(F)F)ccn1 [Compound 77, 4-[[2-(2,4-difluorophenoxy)-6-(trifluoromethyl)benzoyl]amino]pyridine-2-carboxamide] |
| > 3000 | NC(=O)c1cc(NC(=O)c2c(Oc3ccc(F)c4c3OCC4)cccc2C(F)(F)F)ccn1 [Compound 78, 4-[[2-[(4-fluoro-2,3-dihydrobenzofuran-7-yl)oxy]-6-(trifluoromethyl)benzoyl]amino]pyridine-2-carboxamide] |
| > 3000 | NC(=O)c1cc(NC(=O)c2c(Oc3ccc(F)cc3Cl)cccc2C(F)(F)F)ccn1 [Compound 79, 4-[[2-(2-chloro-4-fluoro-phenoxy)-6-(trifluoromethyl)benzoyl]amino]pyridine-2-carboxamide] |
| > 3000 | NC(=O)c1cc(NC(=O)c2c(Oc3ccc(F)c(Cl)c3)cccc2C(F)(F)F)ccn1 [Compound 80, 4-[[2-(3-chloro-4-fluoro-phenoxy)-6-(trifluoromethyl)benzoyl]amino]pyridine-2-carboxamide] |
| > 3000 | CC(C)Oc1ccc(Oc2cccc(C(F)(F)F)c2C(=O)Nc2ccnc(C(N)=O)c2)c(F)c1 [Compound 81, 4-[[2-(2-fluoro-4-isopropoxy-phenoxy)-6-(trifluoromethyl)benzoyl]amino]pyridine-2-carboxamide] |
| 160 | CCOc1c(C(F)(F)F)ccc(Oc2ccc(OC(F)(F)F)cc2OC)c1C(=O)Nc1ccnc(C(N)=O)c1 [Compound 83, 4-[[2-ethoxy-6-[2-methoxy-4-(trifluoromethoxy)phenoxy]-3-(trifluoromethyl)benzoyl]amino]pyridine-2-carboxamide] |
| 625 | COc1cc(OC(F)(F)F)ccc1Oc1ccc(C(F)(F)F)c(OCC2CC2)c1C(=O)Nc1ccnc(C(N)=O)c1 [Compound 84, 4-[[2-(cyclopropylmethoxy)-6-[2-methoxy-4-(trifluoromethoxy)phenoxy]-3-(trifluoromethyl)benzoyl]amino]pyridine-2-carboxamide] |
| 180 | COc1cc(OC(F)(F)F)ccc1Oc1ccc(C(F)(F)F)c(OC2CC2)c1C(=O)Nc1ccnc(C(N)=O)c1 [Compound 85, 4-[[2-(cyclopropoxy)-6-[2-methoxy-4-(trifluoromethoxy)phenoxy]-3-(trifluoromethyl)benzoyl]amino]pyridine-2-carboxamide] |

| IC50 [nM] | Structure (SMILES) |
| --- | --- |
| 1000 | COc1cc(OC(F)(F)F)ccc1Oc1ccc(C(F)(F)F)c(OCC2CC2(F)F)c1C(=O)Nc1ccnc(C(N)=O)c1 (centres unmarked) [Compound 86, 4-[[2-[(2,2-difluorocyclopropyl)methoxy]-6-[2-methoxy-4-(trifluoromethoxy)phenoxy]-3-(trifluoromethyl)benzoyl]amino]pyridine-2-carboxamide] |
| 1500 | COc1cc(OC(F)(F)F)ccc1Oc1ccc(C(F)(F)F)c(NCC(C)C)c1C(=O)Nc1ccnc(C(N)=O)c1 [Compound 87, 4-[[2-(isobutylamino)-6-[2-methoxy-4-(trifluoromethoxy)phenoxy]-3-(trifluoromethyl)benzoyl]amino]pyridine-2-carboxamide] |
| 39 | [2H]C([2H])([2H])Oc1cc(OC(F)(F)F)ccc1Oc1cc(-c2ccc(C)cc2)cc(F)c1C(=O)Nc1ccnc(C(N)=O)c1 [Compound 88, 4-[[2-fluoro-4-(p-tolyl)-6-[2-(trideuteriomethoxy)-4-(trifluoromethoxy)phenoxy]benzoyl]amino]pyridine-2-carboxamide] |
| 36 | [2H]C([2H])([2H])Oc1cc(OC(F)(F)F)ccc1Oc1cc(-c2ccc(F)cc2)cc(F)c1C(=O)Nc1ccnc(C(N)=O)c1 [Compound 89, 4-[[2-fluoro-4-(4-fluorophenyl)-6-[2-(trideuteriomethoxy)-4-(trifluoromethoxy)phenoxy]benzoyl]amino]pyridine-2-carboxamide] |
| 210 | [2H]C([2H])([2H])Oc1cc(OC(F)(F)F)ccc1Oc1cc(-c2cccnc2)cc(F)c1C(=O)Nc1ccnc(C(N)=O)c1 [Compound 90, 4-[[2-fluoro-4-(3-pyridyl)-6-[2-(trideuteriomethoxy)-4-(trifluoromethoxy)phenoxy]benzoyl]amino]pyridine-2-carboxamide] |
| 440 | [2H]C([2H])([2H])Oc1cc(OC(F)(F)F)ccc1Oc1cc(-c2ccncc2)cc(F)c1C(=O)Nc1ccnc(C(N)=O)c1 [Compound 91, 4-[[2-fluoro-4-(4-pyridyl)-6-[2-(trideuteriomethoxy)-4-(trifluoromethoxy)phenoxy]benzoyl]amino]pyridine-2-carboxamide] |
| 63 | [2H]C([2H])([2H])Oc1cc(OC(F)(F)F)ccc1Oc1cc(-c2ccccc2)cc(F)c1C(=O)Nc1ccnc(C(N)=O)c1 [Compound 92, 4-[[2-fluoro-4-phenyl-6-[2-(trideuteriomethoxy)-4-(trifluoromethoxy)phenoxy]benzoyl]amino]pyridine-2-carboxamide] |
| 13 | [2H]C([2H])([2H])Oc1cc(OC(F)(F)F)ccc1Oc1cc(-c2ccc(C(F)(F)F)cc2)cc(F)c1C(=O)Nc1ccnc(C(N)=O)c1 [Compound 93, 4-[[2-fluoro-6-[2-(trideuteriomethoxy)-4-(trifluoromethoxy)phenoxy]-4-[4-(trifluoromethyl)phenyl]benzoyl]amino]pyridine-2-carboxamide] |
| 39 | [2H]C([2H])([2H])Oc1cc(OC(F)(F)F)ccc1Oc1cc(-c2cccc(C(F)(F)F)c2)cc(F)c1C(=O)Nc1ccnc(C(N)=O)c1 [Compound 94, 4-[[2-fluoro-6-[2-(trideuteriomethoxy)-4-(trifluoromethoxy)phenoxy]-4-[3-(trifluoromethyl)phenyl]benzoyl]amino]pyridine-2-carboxamide] |
| 140 | [2H]C([2H])([2H])Oc1cc(OC(F)(F)F)ccc1Oc1cc(-c2ccccc2C(F)(F)F)cc(F)c1C(=O)Nc1ccnc(C(N)=O)c1 [Compound 95, 4-[[2-fluoro-6-[2-(trideuteriomethoxy)-4-(trifluoromethoxy)phenoxy]-4-[2-(trifluoromethyl)phenyl]benzoyl]amino]pyridine-2-carboxamide] |
| 13 | [2H]C([2H])([2H])Oc1cc(OC(F)(F)F)ccc1Oc1cc(C2CCCC2)cc(F)c1C(=O)Nc1ccnc(C(N)=O)c1 [Compound 96, 4-[[4-Cyclopentyl-2-Fluoro-6-[2-(Trideuteriomethoxy)-4-(Trifluoromethoxy)Phenoxy]Benzoyl]Amino]Pyridine-2-Carboxamide] |
| 14 | [2H]C([2H])([2H])Oc1cc(OC(F)(F)F)ccc1Oc1cc(C2CCCCC2)cc(F)c1C(=O)Nc1ccnc(C(N)=O)c1 [Compound 97] |
| 23 | [2H]C([2H])([2H])Oc1cc(OC(F)(F)F)ccc1Oc1cc(C2CCC(F)(F)CC2)cc(F)c1C(=O)Nc1ccnc(C(N)=O)c1 [Compound 98] |
| 380 | [2H]C([2H])([2H])Oc1cc(OC(F)(F)F)ccc1Oc1cc(C(F)(F)F)c(F)cc1C(=O)Nc1ccnc(C(N)=O)c1 [Compound 99, 4-[[5-fluoro-2-[2-(trideuteriomethoxy)-4-(trifluoromethoxy)phenoxy]-4-(trifluoromethyl)benzoyl]amino]pyridine-2-carboxamide] |
| 630 | [2H]C([2H])([2H])Oc1cc(OC(F)(F)F)ccc1Oc1cc(C(F)(F)F)c(F)cc1C(=O)Nc1ccc(C(N)=O)nc1 [Compound 100, 5-[[5-fluoro-2-[2-(trideuteriomethoxy)-4-(trifluoromethoxy)phenoxy]-4-(trifluoromethyl)benzoyl]amino]pyridine-2-carboxamide] |

| Structure (SMILES) | IC50 [nM] |
| --- | --- |
| COc1cc(OC(F)(F)F)ccc1Oc1ccc(C(F)(F)F)c(OCC(C)C)c1C(=O)Nc1ccnc(C(N)=O)c1 [Compound 82, 4-[[2-isobutoxy-6-[2-methoxy-4-(trifluoromethoxy)phenoxy]-3-(trifluoromethyl)benzoyl]amino]pyridine-2-carboxamide] | > 3000 |
